Assay results as given in patent publication US9145425B2, “Cephem compound having catechol group” (SHIONOGI & CO., LTD., priority 2010, dated 2015).
Converted amounts (≈) assume the structure as drawn. Like-named read-outs stand apart in the source and are kept apart here.

Columns and labels:
Format in all cases: cell-based
[1] = tested on: Acinetobacter baumannii SR24396; assay: Minimum Inhibitory Concentration (MIC), agar plate incubation, Japan Society for Chemotherapy standard method
Procedure: (§1) The antimicrobial activity in vitro of the present compound (I) was determined.
(§2) Measurement of Minimum Inhibitory Concentration (MIC, μg/ml) was conducted according to the standard method of the Japan Society for Chemotherapy and the amount of bacteria for inoculation was 1000 cfu/spot, and sensitive disc medium was used as the test medium, and conducted using agar plate incubation.
(§3) In the tables, the unit of the values of inhibitory activity is μg/ml.

[2] = tested on: Pseudomonas aeruginosa SR27060; assay: as above
Procedure: as §1, §2, §3

[3] = tested on: Klebsiella pneumoniae ATCC 700603; assay: as above
Procedure: as §1, §2, §3

[4] = tested on: Pseudomonas aeruginosa SR24; assay: as above
Procedure: as §1, §2, §3

[5] = tested on: Stenotrophomonas maltophilia SR21970; assay: Minimum Inhibitory Concentration (MIC), agar plate incubation, CLSI method
Procedure: as §1
Measurement of Minimum Inhibitory Concentration (MIC, μg/ml) was conducted according to the CLSI (Clinical and Laboratory Standards Institute) and the amount of bacteria for inoculation was 10000 cfu/spot, and Mueller-Hinton agar medium was used as the test medium, and conducted using agar plate incubation.
as §3

[6] = Acinetobacter baumannii, SR24396, read-out: Minimum Inhibitory Concentration (MIC)
[7] = Pseudomonas aeruginosa, SR27060, read-out: Minimum Inhibitory Concentration (MIC)
[8] = Klebsiella pneumoniae, ATCC700603, read-out: Minimum Inhibitory Concentration (MIC)
[9] = Pseudomonas aeruginosa, SR24, read-out: Minimum Inhibitory Concentration (MIC)
[10] = Stenotrophomonas maltophilia, SR21970, read-out: Minimum Inhibitory Concentration (MIC)
[11] = Acinetobacter baumannii SR24396, no enzyme, 1000 cfu/spot, sensitive disc medium
[12] = Pseudomonas aeruginosa SR27060, IMP-1, MBL producer strain (carbapenem resistant strain), 1000 cfu/spot, sensitive disc medium
[13] = Klebsiella pneumoniae ATCC 700603, SHV-18, ESBL producer strain, 1000 cfu/spot, sensitive disc medium
[14] = Pseudomonas aeruginosa SR24, no enzyme, ceftazidime sensitive strain, 1000 cfu/spot, sensitive disc medium
[15] = Stenotrophomonas maltophilia SR21970, L-1, MBL producer strain (carbapenem resistant strain), 10000 cfu/spot, Mueller-Hinton agar medium
[16] = Acinetobacter baumannii SR24396, no enzyme, 1000 cfu/spot, sensitive disc medium, read-out: Minimum Inhibitory Concentration (MIC)
[17] = Pseudomonas aeruginosa SR27060, IMP-1, MBL producer strain (carbapenem resistant strain), 1000 cfu/spot, sensitive disc medium, read-out: Minimum Inhibitory Concentration (MIC)
[18] = ATCC700603, Klebsiella pneumoniae ATCC 700603, SHV-18, ESBL producer strain, 1000 cfu/spot, sensitive disc medium, read-out: Minimum Inhibitory Concentration (MIC)
[19] = Pseudomonas aeruginosa SR24, no enzyme, ceftazidime sensitive strain, 1000 cfu/spot, sensitive disc medium, read-out: Minimum Inhibitory Concentration (MIC)
[20] = Stenotrophomonas maltophilia SR21970, L-1, MBL producer strain (carbapenem resistant strain), 10000 cfu/spot, Mueller-Hinton agar medium, read-out: Minimum Inhibitory Concentration (MIC)

Compound	Minimum Inhibitory Concentration (MIC) [1, 11] [µg/mL]	Minimum Inhibitory Concentration (MIC) [2, 12] [µg/mL]	Minimum Inhibitory Concentration (MIC) [3, 13] [µg/mL]	Minimum Inhibitory Concentration (MIC) [4, 14] [µg/mL]	Minimum Inhibitory Concentration (MIC) [5, 15] [µg/mL]	further results
CC(C)(O/N=C(\C(=O)N[C@@H]1C(=O)N2C(C(=O)O)=C(C[N+]3(C)[C@@H]4CC[C@H]3C[C@@H](NC(=O)c3cc(O)c(O)c(Cl)c3)C4)CS[C@H]12)c1csc(N)n1)C(=O)[O-] (some centres unmarked) [II-50]	–	–	–	–	–	MIC [1, 6]: 0.25 µg/mL (≈ 0.321 µM); MIC [2, 7]: 0.5 µg/mL (≈ 0.642 µM); MIC [3, 8]: 0.25 µg/mL (≈ 0.321 µM); MIC [4, 9]: 0.125 µg/mL (≈ 0.161 µM); MIC [5, 10]: 0.5 µg/mL (≈ 0.642 µM)
CC(ON=C(C(=O)NC1C(=O)N2C(C(=O)[O-])=C(C[N+]34CCCC3CN(C(=O)c3ccc(O)c(O)c3Cl)CC4)CSC12)c1csc(N)n1)C(=O)[O-].[Na+] (centres unmarked) [Compound I-18]	0.125	1	0.5	0.063	2	–
CC(C)(ON=C(C(=O)NC1C(=O)N2C(C(=O)[O-])=C(C[N+]34CCCC3CN(C(=O)c3ccc(O)c(O)c3Cl)CC4)CSC12)c1csc(N)n1)C(=O)[O-].[Na+] (centres unmarked) [Compound I-31]	0.25	0.5	1	0.063	1	–
CC(C)[C@H](O/N=C(\C(=O)N[C@@H]1C(=O)N2C(C(=O)O)=C(C[N@+]3(C)[C@@H]4CC[C@H]3C[C@@H](NC(=O)c3ccc(O)c(O)c3Cl)C4)CS[C@H]12)c1csc(N)n1)C(=O)[O-] [III-3]	–	–	–	–	–	MIC [1, 16]: 0.125 µg/mL (≈ 0.158 µM); MIC [2, 17]: 0.5 µg/mL (≈ 0.631 µM); MIC [3, 18]: 0.25 µg/mL (≈ 0.316 µM); MIC [4, 19]: 0.125 µg/mL (≈ 0.158 µM); MIC [5, 20]: 0.5 µg/mL (≈ 0.631 µM)
Nc1nc(/C(=N/O[C@H](C(=O)[O-])c2ccccc2)C(=O)N[C@@H]2C(=O)N3C(C(=O)[O-])=C(C[N+]4(CCNC(=O)c5ccc(O)c(O)c5Cl)CCCC4)CS[C@H]23)ns1.[Na+] [Compound I-51]	0.125	0.5	0.25	0.063	1	–
Nc1nc(/C(=N/O[C@@H](CC(=O)[O-])C(=O)[O-])C(=O)N[C@@H]2C(=O)N3C(C(=O)[O-])=C(C[N+]45CCC(CC4)N(C(=O)c4ccc(O)c(O)c4Cl)CC5)CS[C@H]23)cs1.[Na+].[Na+] [Compound I-9]	–	–	–	–	–	MIC [1, 16]: 0.125 µg/mL; MIC [2, 17]: 0.25 µg/mL; MIC [3, 18]: 0.125 µg/mL; MIC [4, 19]: 0.063 µg/mL; MIC [5, 20]: 0.5 µg/mL
CC(C)(O/N=C(\C(=O)N[C@@H]1C(=O)N2C(C(=O)O)=C(C[N+]34CCCC3(CNC(=O)c3ccc(O)c(O)c3Cl)CCC4)CS[C@H]12)c1csc(N)n1)C(=O)[O-] (some centres unmarked) [III-5]	–	–	–	–	–	MIC [1, 6]: 0.25 µg/mL (≈ 0.321 µM); MIC [2, 7]: 0.5 µg/mL (≈ 0.642 µM); MIC [3, 8]: 0.125 µg/mL (≈ 0.161 µM); MIC [4, 9]: 0.125 µg/mL (≈ 0.161 µM); MIC [5, 10]: 0.25 µg/mL (≈ 0.321 µM)
C[N+]1(CC2=C(C(=O)[O-])N3C(=O)[C@@H](NC(=O)/C(=N\O[C@@H](CC(=O)[O-])C(=O)[O-])c4nc(N)sc4Cl)[C@H]3SC2)[C@@H]2CC[C@H]1C[C@@H](NC(=O)c1ccc(O)c(O)c1Cl)C2.[Na+].[Na+] (some centres unmarked) [II-5]	0.125	0.25	0.5	0.125	4	–
Nc1nc(C(=NOC(CC(=O)[O-])C(=O)[O-])C(=O)NC2C(=O)N3C(C(=O)[O-])=C(C[N+]45CCCC4CN(C(=O)c4ccc(O)c(O)c4Cl)CC5)CSC23)cs1.[Na+].[Na+] (centres unmarked) [Compound I-14]	0.125	0.25	0.5	0.125	1	–
CCC(ON=C(C(=O)NC1C(=O)N2C(C(=O)[O-])=C(C[N+]34CCCC3CN(C(=O)c3ccc(O)c(O)c3Cl)CC4)CSC12)c1csc(N)n1)C(=O)[O-].[Na+] (centres unmarked) [Compound I-37]	0.125	1	0.5	0.125	1	–
CC(C)(O/N=C(\C(=O)N[C@@H]1C(=O)N2C(C(=O)[O-])=C(C[N@+]34CC[C@H](C3)N(C(=O)c3ccc(O)c(O)c3Cl)CC4)CS[C@H]12)c1csc(N)n1)C(=O)[O-].[Na+] [Compound I-6]	–	–	–	–	–	MIC [1, 16]: 0.125 µg/mL; MIC [2, 17]: 0.5 µg/mL; MIC [3, 18]: 1 µg/mL; MIC [4, 19]: 0.063 µg/mL; MIC [5, 20]: 1 µg/mL
CC(C)(O/N=C(\C(=O)N[C@@H]1C(=O)N2C(C(=O)[O-])=C(C[N+]34CCC(CC3)N(C(=O)c3ccc(O)c(O)c3Cl)CC4)CS[C@H]12)c1csc(N)n1)C(=O)[O-].[Na+] [Compound I-5]	–	–	–	–	–	MIC [1, 16]: 0.125 µg/mL; MIC [2, 17]: 0.5 µg/mL; MIC [3, 18]: 0.25 µg/mL; MIC [4, 19]: 0.063 µg/mL; MIC [5, 20]: 0.5 µg/mL
CC(C)(O/N=C(\C(=O)N[C@@H]1C(=O)N2C(C(=O)[O-])=C(C[N+]3(CCNC(=O)c4cc(O)c(O)c(F)c4)CCCC3)CS[C@H]12)c1csc(N)n1)C(=O)[O-].[Na+] [II-15]	0.125	0.25	0.125	0.063	0.5	–
CC(C)(O/N=C(\C(=O)N[C@@H]1C(=O)N2C(C(=O)O)=C(C[N+]3(C)[C@@H]4CC[C@H]3C[C@@H](NC(=O)c3ccc(O)c(O)c3Cl)C4)CS[C@H]12)c1nsc(N)n1)C(=O)[O-] (some centres unmarked) [II-63]	–	–	–	–	–	MIC [1, 16]: 0.125 µg/mL (≈ 0.16 µM); MIC [2, 17]: 0.5 µg/mL (≈ 0.642 µM); MIC [3, 18]: 1 µg/mL (≈ 1.28 µM); MIC [4, 19]: 0.063 µg/mL (≈ 0.0808 µM); MIC [5, 20]: 0.5 µg/mL (≈ 0.642 µM)
C[C@@H](O/N=C(\C(=O)N[C@@H]1C(=O)N2C(C(=O)O)=C(C[N@@+]34CC[C@@H](C3)N(C(=O)c3ccc(O)c(O)c3Cl)CC4)CS[C@H]12)c1csc(N)n1)C(=O)[O-] [II-25]	–	–	–	–	–	MIC [1, 16]: 0.063 µg/mL (≈ 0.0856 µM); MIC [2, 17]: 1 µg/mL (≈ 1.36 µM); MIC [3, 18]: 0.5 µg/mL (≈ 0.679 µM); MIC [4, 19]: 0.125 µg/mL (≈ 0.17 µM); MIC [5, 20]: 1 µg/mL (≈ 1.36 µM)
C[N+]1(CC2=C(C(=O)[O-])N3C(=O)C(NC(=O)C(=NOC(CC(=O)O)C(=O)[O-])c4csc(N)n4)C3SC2)C2CCC1CC(NC(=O)c1ccc(O)c(O)c1C(F)(F)F)C2.[Na+] (centres unmarked) [III-14]	0.125	0.5	0.5	0.25	0.25	–
CC(C)(O/N=C(\C(=O)N[C@@H]1C(=O)N2C(C(=O)[O-])=C(C[N+]34CCC(CC3)N(C(=O)c3ccc(O)c(O)c3Cl)CC4)CS[C@H]12)c1nsc(N)n1)C(=O)[O-].[Na+] [Compound I-34]	0.125	0.5	0.5	0.063	0.5	–
CC(C)(O/N=C(\C(=O)N[C@@H]1C(=O)N2C(C(=O)O)=C(C[N+]3(C)[C@@H]4CC[C@H]3C[C@@H](NC(=O)c3cc(O)c(O)cc3Cl)C4)CS[C@H]12)c1csc(N)n1)C(=O)[O-] (some centres unmarked) [II-55]	–	–	–	–	–	MIC [1, 6]: 0.25 µg/mL (≈ 0.321 µM); MIC [2, 7]: 0.5 µg/mL (≈ 0.642 µM); MIC [3, 8]: 0.25 µg/mL (≈ 0.321 µM); MIC [5, 10]: 0.5 µg/mL (≈ 0.642 µM)
CC(C)(O/N=C(\C(=O)N[C@@H]1C(=O)N2C(C(=O)O)=C(C[N@+]3(C)[C@@H]4CC[C@H]3C[C@@H](NC(=O)c3cc(F)c(O)c(O)c3F)C4)CS[C@H]12)c1csc(N)n1)C(=O)[O-] [III-9]	–	–	–	–	–	MIC [1, 6]: 0.125 µg/mL (≈ 0.16 µM); MIC [2, 7]: 0.25 µg/mL (≈ 0.321 µM); MIC [3, 8]: 0.125 µg/mL (≈ 0.16 µM); MIC [5, 10]: 0.5 µg/mL (≈ 0.641 µM)
C[N+]1(CC2=C(C(=O)[O-])N3C(=O)C(NC(=O)C(=NOC(CC(=O)O)C(=O)[O-])c4csc(N)n4)C3SC2)C2CCC1CC(NC(=O)c1cc(F)c(O)c(O)c1F)C2.[Na+] (centres unmarked) [III-10]	0.125	0.25	0.125	–	0.5	–
C[N+]1(CC2=C(C(=O)[O-])N3C(=O)C(NC(=O)C(=NOC(CC(=O)O)C(=O)[O-])c4csc(N)n4)C3SC2)C2CCC1CC(NC(=O)c1cc(O)c(O)cc1Cl)C2.[Na+] (centres unmarked) [II-56]	0.25	0.5	0.25	–	0.5	–
